Results taken from the SangsterLogP compilation.

Test: method code SF-AS, from DOI: 10.1016/0021-9673(94)85294-4

| SMILES | logP |
| --- | --- |
| CCCNC(=O)c1cc2ccccc2o1 | 2.65 |
| NC(=O)c1cc2ccccc2o1 | 1.54 |
| CNC(=O)c1cc2ccccc2o1 | 1.85 |
| CCNC(=O)c1cc2ccccc2[nH]1 | 2.32 |
| CCNC(=O)c1cc2ccccc2o1 | 2.22 |
| CNC(=O)c1cc2ccccc2[nH]1 | 1.9 |
| CCOC(=O)c1cc2ccccc2o1 | 3.05 |
| CCNC(=O)c1ccc[nH]1 | 0.8 |
| CNC(=O)c1ccc[nH]1 | 0.42 |
| CCCOC(=O)c1ccoc1 | 2.36 |
| CCOC(=O)c1ccc[nH]1 | 1.73 |
| NC(=O)c1cc2ccccc2[nH]1 | 1.61 |
| CNC(=O)c1c[nH]c2ccccc12 | 1.25 |
| CCNC(=O)c1c[nH]c2ccccc12 | 1.62 |
| COC(=O)c1cc2ccccc2[nH]1 | 2.78 |
| NC(=O)c1ccc[nH]1 | 0.09 |
| CCNC(=O)c1ccccc1 | 1.28 |

Results, then the molecule that gave them:

| logP | SMILES |
| --- | --- |
| 2.8 | CCCNC(=O)c1cc2ccccc2[nH]1 |
| 0.71 | CNC(=O)c1cccn1C |
| 1.72 | CCCNC(=O)c1ccccc1 |
| 1.09 | CCNC(=O)c1cccn1C |
| 1.1 | CCCNC(=O)c1ccco1 |
| 1.63 | CCCNC(=O)c1cccn1C |
| 1.2 | CCCNC(=O)c1ccoc1 |
| 0.45 | Cn1cccc1C(N)=O |
| 1.25 | CCCNC(=O)c1ccc[nH]1 |
| 1.8 | COC(=O)c1cccn1C |
